Laboratory results: PubChem BioAssay (NCI)
Values joined by “and” are separate entries in the source; they are usually repeats but may differ in a detail not shown here. Identical values can stand only once.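 Briefly, cells in 96-well plates were exposed to five compound concentrations for 48 h, and endpoints were estimated by linear interpolation. Here, GI50 denotes the concentration required for 50% inhibition of growth. At the TGI there is no net growth.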

How the values were obtained:
Experiment in all cases: NCI-60 cell line screen, 48 h
[1] = tested on: HL-60(TB) leukemia
[2] = tested on: HOP-92 NSCLC
[3] = tested on: K-562 leukemia
[4] = tested on: MCF7 breast
[5] = tested on: MDA-MB-435
[6] = tested on: MOLT-4 leukemia
[7] = tested on: SK-MEL-5 melanoma
[8] = tested on: SN12C renal

SMILES	GI50 [1]	TGI [1]	GI50 [2]	TGI [2]	GI50 [3]	TGI [3]	GI50 [4]	GI50 [5]	TGI [5]	GI50 [6]	GI50 [7]	TGI [7]	GI50 [8]	TGI [8]	TGI [4]	TGI [6]
Cn1c(Cl)c(/C=C2/C(=O)Nc3ccccc32)c2ccccc21	0.14 µM	1.92 µM	13.4 µM	> 100 µM	0.0601 µM	> 100 µM	0.198 µM	< 0.0438 µM	0.152 µM	0.139 µM	0.0964 µM	1.23 µM	1.87 µM	23.7 µM		
Cc1cc(Cl)ccc1OCC(=O)Nc1nc2c(Cl)cccc2s1	5.63 µM	> 100 µM	21 µM	97.5 µM	7.25 µM	> 100 µM	11.2 µM	> 100 µM	> 100 µM	6.94 µM	> 100 µM	> 100 µM	39.2 µM	> 100 µM	24 µM	60.3 µM
CC(C)CNc1nc(-c2ccccc2Cl)nc2ccccc12			15.6 µM	35.2 µM	16.8 µM	43.5 µM	22.6 µM	16.5 µM	30.8 µM	17.9 µM	16.2 µM	29.8 µM	16.5 µM	30.6 µM	47.7 µM	54.9 µM
CN(c1ccc(NC(=O)Nc2c(Cl)cccc2Cl)cc1)c1ccnc(Nc2cccc(CS(C)(=O)=O)c2)n1	24.6 µM	> 25 µM	2.88 µM	12 µM	1.54 µM	> 25 µM	2.82 µM	2.26 µM	10.9 µM	> 25 µM	2.79 µM	7.09 µM	3.37 µM	10.6 µM	> 14.3 µM	> 25 µM
COc1ccc2c(c1)C(=O)CCc1cc(OC)c(OC)c(OC)c1-2					< 0.01 µM	> 100 µM			0.0717 µM	< 0.01 µM			< 0.01 µM	> 100 µM	> 100 µM	35.4 µM
CCN1C(=O)/C(=C/c2c(Cl)[nH]c3cc(C)c(OC)cc23)c2ccccc21			12.8 µM	63.4 µM	3.03 µM	> 100 µM	0.409 µM	0.315 µM	0.737 µM	4.36 µM	2.99 µM	8.19 µM	5.51 µM	83.1 µM	> 100 µM	35.2 µM
CCCCCCCCn1ccc2cc(NC(=O)Cn3cc(CN4CCCCCC4)nn3)ccc21	1.87 µM	3.75 µM	1.26 µM	2.61 µM	1.67 µM	3.6 µM	1.83 µM	1.69 µM	3.18 µM	2.05 µM	1.74 µM	3.13 µM	1.67 µM	3.26 µM	3.63 µM	5.08 µM
CS(=O)(=O)CCNCc1coc(-c2ccc3ncnc(Nc4ccc(OCc5ccccc5)cc4)c3c2)c1	4.15 µM	9.13 µM	2.62 µM	17.3 µM	4.54 µM	11 µM	3.77 µM	4.11 µM	8.23 µM	5.2 µM	3.27 µM	6.46 µM	3.57 µM	8.04 µM	12.3 µM	16.3 µM
COc1cccc2c1C(=N)c1c(O)c3c(c(O)c1C2=O)C[C@@](O)(C(C)=O)C[C@@H]3O[C@H]1C[C@H](N)[C@H](O)[C@H](C)O1	0.112 µM	2.36 µM		7.35 µM	0.322 µM	10.9 µM	0.0379 µM	1.66 µM	8.91 µM	0.0428 µM	0.523 µM	2.17 µM	0.224 µM	1.21 µM	5.2 µM	2.89 µM
O=C1C=CC(=O)C2C1C1(Cl)C(Cl)=C(Cl)C2(Cl)C1(Cl)Cl (configuration not stated)	2.71 µM	11 µM	1.69 µM	6.88 µM	2.58 µM	10.8 µM	8.55 µM	1.69 µM	4.06 µM	2.54 µM	6.61 µM	19.4 µM	6 µM	25.6 µM	31.1 µM	14.4 µM
CN(C)C/C=C/C(=O)Nc1ccc(C(=O)N[C@@]2(C)CCC[C@@H](Nc3ncc(Cl)c(-c4c[nH]c5ccccc45)n3)C2)nc1	0.0145 µM	0.0665 µM	< 0.0109 µM	0.041 µM	< 0.01 µM	5.32 µM		0.0108 µM	0.112 µM	0.0178 µM	0.0221 µM	0.779 µM				1.12 µM
Nc1ncc(-c2cnn(C3CCNCC3)c2)cc1-c1nc2cc(Cl)ccc2o1	1.56 µM	3.2 µM	0.808 µM	2.14 µM	0.218 µM	0.444 µM	1.14 µM	1.77 µM	3.36 µM		1.66 µM	3.08 µM	1.24 µM	2.71 µM	2.68 µM	
Nc1n[nH]c2cccc(C#Cc3cccc(NC(=O)c4cccc(C(F)(F)F)c4)c3)c12	0.875 µM	4.55 µM	1.9 µM	5.24 µM	0.19 µM	11.1 µM	3 µM	3.04 µM	13.7 µM	2.21 µM	4.13 µM	14.8 µM	4.09 µM	17.3 µM	15.8 µM	13.3 µM
CCCCCCCCCCCCCCCCCCOC[C@H](COP(=O)(O)O[C@H]1[C@H](O)[C@@H](O)[C@H](O)C[C@H]1O)OC	35 µM and 9.09 µM	> 100 µM and 23.3 µM	29.4 µM and 12.3 µM	> 100 µM and 25.3 µM	> 100 µM and 18.4 µM	> 100 µM and 55.2 µM	> 100 µM and 17.3 µM	65.9 µM and 11.8 µM	> 100 µM and 43.8 µM	27 µM and 12.4 µM	> 100 µM and 18 µM	> 100 µM and 32.3 µM	> 100 µM and 12.2 µM	> 100 µM and 25.2 µM	> 100 µM and 32.2 µM	> 100 µM and 33 µM
Cc1cn(-c2cc(NC(=O)c3cccc(C#Cc4cccc5[nH]nc(N)c45)c3)cc(C(F)(F)F)c2)cn1	3.22 µM	32.6 µM	2.67 µM	9.75 µM		> 100 µM	3.6 µM	3.74 µM	37 µM	3.84 µM	4.66 µM	21.7 µM	7.6 µM	> 100 µM	> 100 µM	> 100 µM
C=C(C)[C@@H]1CC[C@]2(COCCCN)CC[C@]3(C)[C@H](CC[C@@H]4[C@@](C)(CCCNCCCN)[C@H](C(=C)C)CC[C@]43C)[C@@H]12	1.64 µM	3.47 µM	1.36 µM	2.84 µM	1.67 µM	3.57 µM	1.59 µM	1.84 µM	3.41 µM	1.96 µM	1.81 µM	3.27 µM	1.58 µM	2.96 µM	3.22 µM	4.47 µM
CCN1CCCc2cc3c(C(F)(F)F)cc(=O)oc3cc21				84 µM		> 100 µM			> 100 µM			72.3 µM		> 100 µM	> 100 µM	> 100 µM

SMILES	GI50 [1]	TGI [1]	GI50 [2]	TGI [2]	GI50 [3]	TGI [3]	GI50 [4]	GI50 [5]	TGI [5]	GI50 [6]	GI50 [7]	TGI [7]	GI50 [8]	TGI [8]	TGI [4]	TGI [6]
O=NNc1ccc2ccccc2n1		> 100 µM				> 100 µM			> 100 µM			> 100 µM		> 100 µM	> 100 µM	> 100 µM
CC(C)C(O)(C(C)C)C(C)C		> 100 µM		> 100 µM		> 100 µM			> 100 µM			> 100 µM		> 100 µM	> 100 µM	> 100 µM
O=C(Oc1ccc[nH]c1=O)c1cc([N+](=O)[O-])cc([N+](=O)[O-])c1	53.6 µM	> 100 µM	> 100 µM	> 100 µM	34.9 µM	> 100 µM	> 100 µM	51.3 µM	> 100 µM	> 100 µM	34.3 µM	> 100 µM	> 100 µM	> 100 µM	> 100 µM	> 100 µM
O=C(O)CCCc1ccc2ccc3ccccc3c2c1				> 100 µM		> 100 µM			> 100 µM			> 100 µM		> 100 µM	> 100 µM	> 100 µM
CCOc1cc(C(C)(C)C)ccc1C1=N[C@H](c2ccc(Cl)cc2)[C@H](c2ccc(Cl)cc2)N1C(=O)N1CCN(CC#Cc2cccc3c2CN([C@@H]2CCC(=O)NC2=O)C3=O)CC1			0.0372 µM	8.51 µM	2.66 µM	> 100 µM	0.0712 µM	2.75 µM	> 53.8 µM	0.019 µM	0.868 µM	2.2 µM	1.31 µM	> 100 µM	> 100 µM	> 100 µM
O=C(/C=C/c1ccccc1)Nc1ncc(Cc2ccccc2Cl)s1	0.285 µM	0.872 µM	1.26 µM	> 100 µM	0.223 µM	> 100 µM	0.311 µM	0.0972 µM	0.344 µM	0.459 µM	0.341 µM		0.623 µM	> 100 µM	> 100 µM	> 100 µM
COc1cc(C2c3cc4c(cc3OC(C)(N3CCCC3)C2C)OCO4)cc(OC)c1OC (configuration not stated)		0.685 µM		33.6 µM		0.908 µM			0.377 µM			1.58 µM		30.8 µM	16.3 µM	10.6 µM
CCN(CC)CCCC(CCl)Nc1ccnc2cc(Cl)ccc12 (configuration not stated)	15.5 µM and 7.99 µM	72.8 µM and > 31.6 µM	11.2 µM and 14.5 µM	36.6 µM and 42.1 µM	3.42 µM and 3.99 µM	15.7 µM	23.9 µM and 27.9 µM	14.6 µM and 6.64 µM	28.3 µM and 19.3 µM		10.3 µM and 13 µM	23.5 µM and 28.6 µM	52.1 µM and 48 µM	> 100 µM	75.2 µM and > 87.2 µM	81.1 µM and > 34.3 µM
[N-]=[N+]=NCCCn1c2c(c3ccc([N+](=O)[O-])cc3c1=O)C(=O)c1ccccc1-2	0.0101 µM	> 100 µM	45.1 µM	> 100 µM	1.05 µM	> 100 µM	4.19 µM	> 100 µM	> 100 µM		2.39 µM	9.31 µM	72.5 µM	> 100 µM	> 100 µM	> 100 µM
O=C1C(=O)c2ccccc2C(O)=C1C(C1=C(O)c2ccccc2C(=O)C1=O)c1ccc(Cl)cc1		4.83 µM		44.1 µM		39.2 µM			3.38 µM			19.9 µM		3.66 µM	11.4 µM	19.3 µM
CC1(C)N=C(N)N=C(N)N1c1ccc(CCC(=O)Nc2ccc(S(=O)(=O)F)cc2)c(Cl)c1	0.142 µM	> 100 µM	6.54 µM	> 100 µM	0.342 µM	> 100 µM	0.515 µM	0.296 µM	> 100 µM	1.2 µM	0.591 µM	> 100 µM	0.487 µM	> 100 µM	> 100 µM	> 100 µM
Cc1ccc(S(=O)(=O)N=Nc2c(O)[nH]c3cc(O)c(C(=O)O)cc23)cc1						> 100 µM			> 100 µM			> 100 µM		> 100 µM	> 100 µM	> 100 µM
CCN(CC)CCNC(Cc1ccccc1)c1ccc(OCc2ccccc2)cc1 (configuration not stated)	2.77 µM	7.79 µM			2.37 µM	7.16 µM	3.03 µM	3.16 µM	11 µM	3.43 µM	1.97 µM	4.46 µM	6.68 µM	20.8 µM	12 µM	13.2 µM
CSC(SC)(C(=O)O)c1cc(-c2c(Cl)cccc2Cl)no1				> 100 µM		> 100 µM			> 100 µM			85.8 µM		> 100 µM	> 100 µM	> 100 µM
CNC(=O)OCc1c(COC(=O)NC)c(-c2ccc(-c3ccccc3)cc2)n(C)c1C		18.1 µM		11.9 µM					21.9 µM			14 µM		3.8 µM	14.5 µM	8.95 µM
O=c1[nH]c2ccccc2cc1-c1nc2ccc(Cl)cc2[nH]1	3.24 µM	10.4 µM	1.48 µM	9.29 µM	3.85 µM	> 100 µM	1.4 µM	4.39 µM	> 100 µM		3.4 µM	32.5 µM	3.17 µM	> 100 µM	> 100 µM	
Cc1ccc(C2=C(c3ccc(C)cc3)C3(c4ccc(C)cc4)C4C(=O)OC(=O)C4C2(c2ccc(C)cc2)S3=O)cc1 (configuration not stated)	25.5 µM	> 100 µM	25.3 µM	89.8 µM	27.7 µM	> 100 µM	29.2 µM	17.5 µM	63.7 µM		21.3 µM	57.6 µM	25.1 µM	87.9 µM	> 100 µM	
